From US20190282616A1, “MACROPHAGES REDIRECT PHAGOCYTOSIS BY NON-PROFESSIONAL PHAGOCYTES AND INFLUENCE INFLAMMATION” (University of Virginia Patent Foundation, priority 2016, published 2019)

Columns and labels:
LR73 cells = assay: In vitro engulfment assay: apoptotic thymocyte uptake by LR73 cells; assay type: cell-based, hamster
Description: LR73, SVEC-40, BEAS-2B, and 16HBE14o-cells were seeded in a 24 well plate. Thymocytes were isolated from 4-6 week old mice and induced to undergo apoptosis with dexamethasone. Thymocytes or prepared microvesicles were then stained with either CypHer5E (GE Healthcare, PA15401) or TAMRA (Invitrogen, C-1171). LR73 and SVEC-40 cells were incubated with apoptotic thymocytes at a 1:10 phagocyte to target ratio, BEAS-2B at a 1:5 phagocyte to target ratio, and 16HBE14o—at a 1:20 phagocyte to target ratio for 2 hours. Mouse IGF-I (Sigma-Aldrich), human IGF-I (Sigma-Aldrich), human IGF-II (Sigma-Aldrich) were added to the phagocytes at the same time as addition of apoptotic targets. For IGFBP3 studies, IGFBP3 (Sigma-Aldrich) was added to media or supernatant from J774 cells for one hour to allow IGFBP3 to bind to any available IGF-I, then the mix is added to phagocytes along with apoptotic targets. For all pharmacological studies, phagocytes were pre-incubated with the compounds listed below for one hour prior to addition of apoptotic targets: cytochalasin D (Sigma-Aldrich, C8273, 1 μM), Latrunculin A (Tocris, 3973, 150 nM), CK-666 (Tocris, 3950, 25 μM-100 μM), OSI-906 (Selleckchem, S1091, 5 nM-40 nM), NVP-AEW541 (Selleckchem, S1034, 25 nM-100 nM), Rapamycin (Sigma-Aldrich, R0395, […]), MK-2206 2HCl (Selleckchem, S1078, 10 nM-1 U0126-EtOH (Selleckchem, S1102, […]), Wortmannin (Sigma-Aldrich, W1628, 50 nM-200 nM), Y27632 (Calbiochem, 688000, 3.75 μM-15 μM), or GSK269962 (Tocris, 4009, 80 nM-2 μM). […] Targets were then washed off three times with PBS, and the cells were dissociated from the plate with trypsin and the engulfment assessed by flow cytometry.

[1] = system: SVEC-40 endothelial cells; assay: In vitro engulfment assay: apoptotic thymocyte uptake by SVEC-40 cells; assay type: cell-based, mouse; settings: IGF-1 treatment
Description: LR73, SVEC-40, BEAS-2B, and 16HBE14o-cells were seeded in a 24 well plate. Thymocytes were isolated from 4-6 week old mice and induced to undergo apoptosis with dexamethasone. Thymocytes or prepared microvesicles were then stained with either CypHer5E (GE Healthcare, PA15401) or TAMRA (Invitrogen, C-1171). LR73 and SVEC-40 cells were incubated with apoptotic thymocytes at a 1:10 phagocyte to target ratio, BEAS-2B at a 1:5 phagocyte to target ratio, and 16HBE14o—at a 1:20 phagocyte to target ratio for 2 hours. Mouse IGF-I (Sigma-Aldrich), human IGF-I (Sigma-Aldrich), human IGF-II (Sigma-Aldrich) were added to the phagocytes at the same time as addition of apoptotic targets. For IGFBP3 studies, IGFBP3 (Sigma-Aldrich) was added to media or supernatant from J774 cells for one hour to allow IGFBP3 to bind to any available IGF-I, then the mix is added to phagocytes along with apoptotic targets. […] Targets were then washed off three times with PBS, and the cells were dissociated from the plate with trypsin and the engulfment assessed by flow cytometry.

[2] = system: IGF-1R, Akt and Erk1/2 phosphorylation in LR73 cells; assay: Immunoblotting of signaling in LR73 cells; assay type: cell-based, hamster; settings: LR73 cells, IGF-1 treatment
Description: LR73, J774, or BEAS-2B cells were seeded in a 60 mm dish at a concentration of 5×10^5. […] Cells were lysed in RIPA buffer and used in Western blots. The blots were probed for phospho-Erk1/2 (Cell Signaling Technology, #4370), phospho-Akt (Cell Signaling Technology, #4060), phospho-IGF-1R (Cell Signaling, #3024), total Erk2 (Santa Cruz Biotechnology, #sc-154-G), total Akt (Cell Signaling Technology, #4691), total IGF-1R (Cell Signaling, #9750), and anti-B-actin-HRP (Sigma-Aldrich, #A3854) followed by chemiluminescence detection.

[3] = system: phosphatidylserine (PtdSer) on apoptotic thymocytes; assay: Annexin V binding to apoptotic thymocytes; assay type: cell-based, mouse; settings: n=6
J774 macrophage cells = assay: Apoptotic thymocyte phagocytosis by J774 macrophage cells; assay type: cell-based; settings: even with supra-physiological concentrations of IGF-1, every time point
[4] = system: resident peritoneal macrophages; assay: Liposome uptake by resident peritoneal macrophages; assay type: cell-based, mouse; settings: exposed to IGF-1 vs control
Description: To obtain bone-marrow derived macrophages, femurs were removed from 8 week old mice and flushed with 5 mL of sterile PBS containing 5% FBS. The cell suspension was centrifuged, treated with red blood cell lysis buffer, washed, and then plated onto sterile petri dishes in DMEM containing 10% L929 media, 10% FBS and 1% penicillin/streptomycin/glutamine (PSQ). Media was replenished every 2 to 3 days and differentiated cells were used at day 6 post-harvest. Resident peritoneal macrophages were obtained by flushing the peritoneal cavity of mice with 10 mL of cold PBS containing 5% FBS. Collected cells were spun down, resuspended in X-VIVO 10 (Lonza) and plated at a concentration of 3×10^5 cells per well in a 24 well plate for IGF-1 secretion assays, and 5×10^5 per well in a 24 well plate for engulfment assays. Floating cells were washed the next day and remaining peritoneal macrophages were used 2 days after isolation. Alveolar macrophages were isolated by flushing the lungs with 1 mL of cold PBS instilled intratracheally (five flushes). Collected cells were centrifuged, resuspended in F12K media containing 10% FBS and 1% PSQ, and seeded at 1×10^5 cells per well in a 48-well plate. All floating cells were washed away the next day and remaining cells were used in assays 2 days after isolation.

BEAS-2B cells = assay: Uptake of alveolar macrophage derived microvesicles by BEAS-2B cells; assay type: cell-based, human; settings: IGF-1 100 ng/mL
Description: MH-S, mouse alveolar macrophages, or primary mouse alveolar macrophages were seeded. After adherence, the media was replaced with 0.22 μm filtered media to remove any contaminating microvesicles. After an overnight incubation, the supernatant was harvested and spun at 5000×g to remove cell debris and apoptotic bodies. The pellet was discarded and the resulting supernatant was filtered through 0.8 μm filter and spun again at 17,000×g. The pelleted microvesicles were then washed with HBSS and then spun again at 17,000×g. For engulfment assays, microvesicles were stained with TAMRA for 20 minutes and then added to BEAS-2B cells for 90 minutes. For flow cytometry, purified particles were stained with CD11c, Siglec F, and Annexin V (BD Biosciences, Cat. No. 550475) and processed on Imagestream™ imaging flow cytometer (Amnis). Microvesicle size distribution was characterized using qNano (IZON Science) with a NP400 membrane and at least 500 particles were counted. Microvesicles were prepared for cryo-electron microscopy using standard methods and imaged on an FEI TF20.

insulin-like growth factor I [IGF-1]
engulfment with IGF-1 added simultaneously with apoptotic cells (LR73 cells; data not shown): inhibited engulfment similar to pre-treated cells | apoptotic cell uptake (engulfment) by LR73 cells (LR73 cells; soluble mediator alone, IGF-I at concentrations reported in serum (100-600 ng/mL), other factors over a range of concentrations): significantly dampened apoptotic cell uptake | apoptotic cell uptake by LR73 cells with macrophage produced IGF-1 (LR73 cells; supernatant of J774 cells treated with rIL-4 for 24 hrs): could also suppress apoptotic cell uptake by LR73 cells | apoptotic thymocyte uptake by SVEC-40 cells [1]: engulfment dampening effect of IGF-1 was also seen | phosphorylation of Akt [2]: elicited phosphorylation of Akt | masking of phosphatidylserine on apoptotic cells (Annexin V binding) [3]: not due to masking phosphatidylserine | corpse uptake by J774 cells (J774 macrophage cells): did not affect corpse uptake | liposome uptake by peritoneal macrophages [4]: comparable liposome uptake as control treated cells | uptake of microvesicles by BEAS-2B airway epithelial cells (BEAS-2B cells): enhanced by IGF-1
